Reference: publication PMC4368105, “Oleic Acid Metabolism via a Conserved Cytochrome P450 System-Mediated ω-Hydroxylation in the Bark Beetle-Associated Fungus Grosmannia clavigera” (PLoS ONE, 2015)

Key:
[1] = target: T1, GsCYP630B18 with GsCPR1 (RS1) (Leptographium clavigerum, UniProt F0XBA3); assay: reconstituted membranes, LC/MS of 18-hydroxyoleic acid product; type: biochemical; settings: NADPH, 50 μM oleic acid, pH 7.4, room temperature, 1 h; GsCPR1 as redox partner
T1 construct: gene CMQ_5365; with NADPH--cytochrome P450 reductase
T1 sequence (F0XBA3 1-522): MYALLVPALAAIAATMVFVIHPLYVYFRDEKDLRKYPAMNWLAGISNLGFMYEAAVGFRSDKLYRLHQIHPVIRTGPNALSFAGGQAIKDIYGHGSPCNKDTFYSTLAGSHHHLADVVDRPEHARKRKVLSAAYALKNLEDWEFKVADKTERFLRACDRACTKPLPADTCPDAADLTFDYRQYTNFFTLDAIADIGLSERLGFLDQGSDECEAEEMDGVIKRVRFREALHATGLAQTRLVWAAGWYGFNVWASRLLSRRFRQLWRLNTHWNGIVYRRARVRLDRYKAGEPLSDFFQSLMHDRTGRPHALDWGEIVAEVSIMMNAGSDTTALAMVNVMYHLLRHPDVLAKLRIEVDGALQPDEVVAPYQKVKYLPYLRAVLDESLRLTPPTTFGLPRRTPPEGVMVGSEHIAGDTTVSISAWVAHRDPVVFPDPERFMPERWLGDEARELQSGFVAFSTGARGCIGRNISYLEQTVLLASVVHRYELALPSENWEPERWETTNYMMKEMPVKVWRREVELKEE
T1 sequence (F0XUV1 1-690 partner): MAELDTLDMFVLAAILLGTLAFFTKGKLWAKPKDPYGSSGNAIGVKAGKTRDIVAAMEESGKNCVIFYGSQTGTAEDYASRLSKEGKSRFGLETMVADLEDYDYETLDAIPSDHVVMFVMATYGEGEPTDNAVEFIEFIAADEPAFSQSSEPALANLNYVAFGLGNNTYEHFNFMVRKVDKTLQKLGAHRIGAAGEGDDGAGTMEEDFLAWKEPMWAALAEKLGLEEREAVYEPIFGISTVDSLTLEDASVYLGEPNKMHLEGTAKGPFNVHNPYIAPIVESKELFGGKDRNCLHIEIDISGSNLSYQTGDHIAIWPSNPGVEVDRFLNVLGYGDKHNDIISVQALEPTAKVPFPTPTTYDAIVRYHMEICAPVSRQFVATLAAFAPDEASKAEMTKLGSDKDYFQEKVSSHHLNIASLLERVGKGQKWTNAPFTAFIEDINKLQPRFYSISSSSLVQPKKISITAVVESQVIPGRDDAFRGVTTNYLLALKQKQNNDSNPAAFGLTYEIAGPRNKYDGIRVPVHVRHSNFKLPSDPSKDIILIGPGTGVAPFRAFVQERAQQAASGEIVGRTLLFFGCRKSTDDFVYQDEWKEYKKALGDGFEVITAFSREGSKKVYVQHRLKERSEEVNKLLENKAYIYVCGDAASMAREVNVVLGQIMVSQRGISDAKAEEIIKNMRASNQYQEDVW

[2] = target: T2, GsCYP630B18 with GsCPR2 (RS2) (Leptographium clavigerum, UniProt F0XBA3); assay: as above; type: biochemical; settings: NADPH, 50 μM oleic acid, pH 7.4, room temperature, 1 h; GsCPR2 as redox partner
T2 construct: gene CMQ_5365; with NADPH--cytochrome P450 reductase
T2 sequence (F0XBA3 1-522): T1 sequence (F0XBA3 1-522)
T2 sequence (F0XBA4 1-695 partner): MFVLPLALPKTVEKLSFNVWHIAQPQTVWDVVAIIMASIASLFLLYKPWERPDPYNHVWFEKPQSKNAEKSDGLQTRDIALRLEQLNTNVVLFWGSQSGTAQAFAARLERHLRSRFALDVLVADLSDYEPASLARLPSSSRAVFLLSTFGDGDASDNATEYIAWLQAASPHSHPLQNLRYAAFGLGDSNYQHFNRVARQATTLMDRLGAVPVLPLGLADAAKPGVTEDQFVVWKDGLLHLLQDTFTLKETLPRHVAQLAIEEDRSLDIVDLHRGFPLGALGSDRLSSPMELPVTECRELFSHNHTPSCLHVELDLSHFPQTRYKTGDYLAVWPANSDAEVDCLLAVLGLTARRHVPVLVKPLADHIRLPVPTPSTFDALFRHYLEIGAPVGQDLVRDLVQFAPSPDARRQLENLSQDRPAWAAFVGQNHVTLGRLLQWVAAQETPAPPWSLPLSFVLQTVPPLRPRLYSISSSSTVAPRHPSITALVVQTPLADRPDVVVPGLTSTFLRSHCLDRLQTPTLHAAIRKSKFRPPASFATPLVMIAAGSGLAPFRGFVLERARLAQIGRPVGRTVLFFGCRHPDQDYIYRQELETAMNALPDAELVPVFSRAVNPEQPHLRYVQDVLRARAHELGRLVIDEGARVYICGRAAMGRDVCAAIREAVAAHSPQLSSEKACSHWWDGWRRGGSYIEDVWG

CCCCCCCC/C=C\CCCCCCCC(=O)O [oleic acid]
reconstituted membranes, LC/MS of 18-hydroxyoleic acid product [1]: CYP630B18 converted oleic acid, but none of the other tested compounds
reconstituted membranes, LC/MS of 18-hydroxyoleic acid product [2]: CYP630B18 converted oleic acid, but none of the other tested compounds
